Measurements from patent US20110319482A1, “NOVEL TREATMENTS” (priority 2008, published 2011).

Key:
migraine with aura = test: single centre, double-blind, randomised, placebo controlled crossover study of prophylaxis of migraine in patients with migraine with aura; format: in vivo; conditions: 31 patients with migraine with aura, 20 or 40 mg po od, 12 week treatment period
Procedure: A single centre, double-blind, randomised, placebo controlled crossover study to evaluate the efficacy and tolerability of tonabersat in the prophylaxis of migraine in patients presenting with migraine with aura was conducted. Twelve week treatment period followed by a 4 week wash-out period before cross-over to 12 weeks treatment with the alternative trial medication. To investigate the efficacy of tonabersat compared to placebo in the reduction of the number of aura attacks and the number of migraine headache days in patients with migraine with aura. Following screening, patients were randomised to active or placebo treatment for 12 weeks. During the first two weeks of the treatment period, patients received treatment with tonabersat 20 mg (one tablet daily) or matching placebo. After two weeks, the dose was increased to tonabersat 40 mg per day (two tablets taken once daily [od]) with a similar increase in the number of placebo tablets taken. Depending on tolerability during the treatment period, the dose may have been reduced to 20 mg per day (or one placebo tablet) for the remainder of the treatment period. On completion of the first treatment period patients received placebo tablets (one tablet daily) for 4 weeks before starting the second treatment period when the alternative trial medication was administered. The design of the second period was the same as the first. […]

[1] = clinical trials, oral administration to man: plasma pharmacokinetics; format: in vivo; conditions: human, oral compositions as described in Table 1, administered orally to man
Description: When taken during a migraine attack TMAX may be more variable and prolonged.

half-life ([1]; read-out: terminal elimination half life): 24 to 40 h | Tmax ([1]; read-out: time to maximum plasma concentration (TMAX)): 1 to 3 h
SMILES: CC(=O)c1ccc2c(c1)[C@H](NC(=O)c1ccc(F)c(Cl)c1)[C@H](O)C(C)(C)O2 [tonabersat, cis-6-acetyl-4-(S)-(3-chloro-4-fluorobenzoylamino)-3,4-dihydro-2,2-dimethyl-2H-1-benzopyran-3-(S)-ol]
reduction in aura attacks compared to placebo (migraine with aura; p=0.01): 50% | reduction in migraine headache days compared to placebo (migraine with aura; p=0.08): 37.5%
